The experiment has as its target CXCR7 (Homo sapiens (Human), UniProt P25106). The experiment in a line: PathHunter CHO-K1 CXCR7 β-arrestin assay (agonistic activity). As to conditions: β-arrestin recruitment in PathHunter CHO-K1 CXCR7 β-arrestin cells, 90 minutes at 37° C., geometric mean values. Format: cell-based. Summed up:
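The enzyme-fragment complementation format pairs ProLink-tagged CXCR7 with EA–β-arrestin 2 in CHO-K1 cells, seeded at 5000/well for 24 h and serum-starved in OPTIMEM 3–4 h. Compounds were added in HBSS/20 mM HEPES/0.2% BSA for 90 min at 37 °C, followed by 1 h detection at room temperature and chemiluminescence read-out. EC50 is the geometric mean of several measurements.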
Chain of CXCR7 (P25106 whole entry, the tested form may be a part): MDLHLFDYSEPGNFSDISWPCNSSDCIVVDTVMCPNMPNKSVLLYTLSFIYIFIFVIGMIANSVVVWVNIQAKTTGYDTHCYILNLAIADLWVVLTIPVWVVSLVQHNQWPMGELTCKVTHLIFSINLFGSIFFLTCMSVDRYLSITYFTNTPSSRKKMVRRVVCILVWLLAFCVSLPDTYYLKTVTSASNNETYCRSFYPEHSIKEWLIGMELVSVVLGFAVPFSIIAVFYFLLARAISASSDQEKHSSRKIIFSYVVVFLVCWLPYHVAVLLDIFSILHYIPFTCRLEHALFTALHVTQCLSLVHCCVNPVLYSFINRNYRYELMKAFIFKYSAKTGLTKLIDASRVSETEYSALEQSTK
Chain of CXCR7 (P32121 whole entry partner, the tested form may be a part): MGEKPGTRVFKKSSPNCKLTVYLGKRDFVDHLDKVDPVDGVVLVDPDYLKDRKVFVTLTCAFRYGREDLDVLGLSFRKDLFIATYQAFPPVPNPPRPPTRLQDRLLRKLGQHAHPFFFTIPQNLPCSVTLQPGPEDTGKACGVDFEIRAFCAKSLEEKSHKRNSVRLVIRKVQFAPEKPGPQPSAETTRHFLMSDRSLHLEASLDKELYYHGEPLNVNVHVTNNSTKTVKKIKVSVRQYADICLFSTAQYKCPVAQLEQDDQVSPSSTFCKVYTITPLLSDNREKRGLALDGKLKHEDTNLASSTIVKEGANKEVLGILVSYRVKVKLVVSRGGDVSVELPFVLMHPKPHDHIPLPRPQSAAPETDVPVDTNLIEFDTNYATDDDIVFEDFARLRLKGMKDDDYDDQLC
`Cc1cccnc1CN(CCN(C)C)C(=O)CNc1cccc2c1N(C)CCN(CC1CC1)C2=O` [Example 44, 2-(4-Cyclopropylmethyl-1-methyl-5-oxo-2,3,4,5-tetrahydro-1H-benzo[e][1,4]diazepin-9-ylamino)-N-(2-dimethylamino-ethyl)-N-(3-methyl-pyridin-2-ylmethyl)-acetamide]: the EC50 (commonly the concentration giving half of the maximal effect) is 130 nM.

As to `CC(C)CN1CCOc2c(cccc2NCC(=O)N(CCN(C)C)Cc2ncccc2C(F)(F)F)C1` [Example 2, N-(2-Dimethylamino-ethyl)-2-(4-isobutyl-2,3,4,5-tetrahydro-benzo[f][1,4]oxazepin-9-ylamino)-N-(3-trifluoromethyl-pyridin-2-ylmethyl)-acetamide], the midpoint of the response, the EC50, lay at 3 nM.

In turn, `O=C(CNc1cccc2c1OCCN(CC1CC1)C2=O)N(CCN1CCCC1)Cc1ncccc1C(F)(F)F` [Example 64, 2-(4-Cyclopropylmethyl-5-oxo-2,3,4,5-tetrahydro-benzo[f][1,4]oxazepin-9-ylamino)-N-(2-pyrrolidin-1-yl-ethyl)-N-(3-trifluoromethyl-pyridin-2-ylmethyl)-acetamide] showed an EC50 of 7 nM.

For the compound `CN(C)CCN(Cc1ccccc1C(F)(F)F)C(=O)CNc1cccc2c1N(C)CCN(CC1CC1)C2` [Example 49, 2-(4-Cyclopropylmethyl-1-methyl-2,3,4,5-tetrahydro-1H-benzo[e][1,4]diazepin-9-ylamino)-N-(2-dimethylamino-ethyl)-N-(2-trifluoromethyl-benzyl)-acetamide], it took 2 nM to reach a half-maximal effect (EC50).

Turning to `COc1ccnc(CN(CCN(C)C)C(=O)CNc2cccc3c2OCCN(CC(C)C)C3)c1` [Example 9, N-(2-Dimethylamino-ethyl)-2-(4-isobutyl-2,3,4,5-tetrahydro-benzo[f][1,4]oxazepin-9-ylamino)-N-(4-methoxy-pyridin-2-ylmethyl)-acetamide], the EC50 was found to be 200 nM.

For `CC(C)CN1CCOc2c(cccc2NCC(=O)N(CCN(C)C)Cc2c(F)cccc2F)C1` [Example 19, N-(2,6-Difluoro-benzyl)-N-(2-dimethylamino-ethyl)-2-(4-isobutyl-2,3,4,5-tetrahydro-benzo[f][1,4]oxazepin-9-ylamino)-acetamide], a half-maximal response (EC50) required 12 nM.

In the case of `CN(CCN(Cc1ccccc1C(F)(F)F)C(=O)CNc1cccc2c1C(=O)N(CC1CC1)CCO2)C(=O)OC(C)(C)C` [Example 37, {2-[[2-(4-Cyclopropylmethyl-5-oxo-2,3,4,5-tetrahydro-benzo[f][1,4]oxazepin-6-ylamino)-acetyl]-(2-trifluoromethyl-benzyl)-amino]-ethyl}-methyl-carbamic acid tert-butyl ester], the response was half-maximal at 410 nM (EC50).

`CCN1CCOc2c(cccc2NCC(=O)N(CCN(C(=O)OC(C)(C)C)C(C)C)Cc2ccccc2C(F)(F)F)C1` [Example 69, {2-[[2-(4-Ethyl-2,3,4,5-tetrahydro-benzo[f][1,4]oxazepin-9-ylamino)-acetyl]-(2-trifluoromethyl-benzyl)-amino]-ethyl}-isopropyl-carbamic acid tert-butyl ester] yielded an EC50 of 430 nM.

`CCN1CCN(CC)c2c(NCC(=O)N(CCN3CCOCC3)Cc3ncccc3C(F)(F)F)cccc2C1=O` [Example 47, 2-(1,4-Diethyl-5-oxo-2,3,4,5-tetrahydro-1H-benzo[e][1,4]diazepin-9-ylamino)-N-(2-morpholin-4-yl-ethyl)-N-(3-trifluoromethyl-pyridin-2-ylmethyl)-acetamide] gave an EC50 of 430 nM.

`O=C(CNc1cccc2c1OCC(=O)N(CC1CC1)C2)N(CCN1CCCC1)Cc1ncccc1C(F)(F)F` [Example 65, 2-(4-cyclopropylmethyl-3-oxo-2,3,4,5-tetrahydro-benzo[f][1,4]oxazepin-9-ylamino)-N-(2-pyrrolidin-1-yl-ethyl)-N-(3-trifluoromethyl-pyridin-2-ylmethyl)-acetamide] returned an EC50 of 18 nM.

Compound `CC(C)NCCN(Cc1ccccc1C(F)(F)F)C(=O)CNc1cccc2c1CN(CC1CC1)CCO2` [Example 89, 2-(4-Cyclopropylmethyl-2,3,4,5-tetrahydro-benzo[f][1,4]oxazepin-6-ylamino)-N-(2-isopropylamino-ethyl)-N-(2-trifluoromethyl-benzyl)-acetamide] displayed an EC50 of 5 nM.

In the case of `CCN1CCOc2c(NCC(=O)N(CCNC(C)(C)C)Cc3ccccc3C(F)(F)F)cccc2C1=O` [Example 40, N-(2-tert-Butylamino-ethyl)-2-(4-ethyl-5-oxo-2,3,4,5-tetrahydro-benzo[f][1,4]oxazepin-9-ylamino)-N-(2-trifluoromethyl-benzyl)-acetamide], the response was half-maximal at 7 nM (EC50).

Regarding `CC(C)CN1CCOc2c(cccc2NCC(=O)N(CCN2CCOCC2)Cc2ccccc2C(F)(F)F)C1` [Example 16, 2-(4-Isobutyl-2,3,4,5-tetrahydro-benzo[f][1,4]oxazepin-9-ylamino)-N-(2-morpholin-4-yl-ethyl)-N-(2-trifluoromethyl-benzyl)-acetamide], the EC50 came out at 74 nM.

`CCN1CCNc2c(cccc2NCC(=O)N(CCN(C)C)Cc2ccccc2C(F)(F)F)C1` [Example 21, N-(2-(dimethylamino)ethyl)-2-((4-ethyl-2,3,4,5-tetrahydro-1H-benzo[e][1,4]diazepin-9-yl)amino)-N-(2-(trifluoromethyl)benzyl)acetamide] returned an EC50 of 6 nM.

As to `CN(C)CCN(Cc1ccccc1Cl)C(=O)CNc1cccc2c1C(=O)N(CC1CC1)CCO2` [Example 32, N-(2-Chloro-benzyl)-2-(4-cyclopropylmethyl-5-oxo-2,3,4,5-tetrahydro-benzo[f][1,4]oxazepin-6-ylamino)-N-(2-dimethylamino-ethyl)-acetamide], the EC50 is 15 nM.

`CCN1CCOc2c(cccc2NCC(=O)N(CCN(C)C)Cc2ncccc2C)C1` [Example 73, N-(2-Dimethylamino-ethyl)-2-(4-ethyl-2,3,4,5-tetrahydro-benzo[f][1,4]oxazepin-9-ylamino)-N-(3-methyl-pyridin-2-ylmethyl)-acetamide] returned an EC50 of 59 nM.

Compound `CC(C)NCCN(Cc1ccccc1C(F)(F)F)C(=O)CNc1cccc2c1C(=O)N(CC1CC1)CCO2` [Example 34, 2-(4-Cyclopropylmethyl-5-oxo-2,3,4,5-tetrahydro-benzo[f][1,4]oxazepin-6-ylamino)-N-(2-isopropylamino-ethyl)-N-(2-trifluoromethyl-benzyl)-acetamide] came in with an EC50 of 5 nM.

These data come from patent publication US10202368B2, “CXCR7 receptor modulators” (IDORSIA PHARMACEUTICALS LTD, priority 2014, dated 2019).
